According to patent EP1813636A1, “Polyamine analogs that activate antizyme frameshifting” (MediQuest Therapeutics, Inc., priority 2004, dated 2007):
pEC50, pIC50, pKi: −log10 of the molar value.

How the values were obtained:
antizyme = conditions: 10 µM; cited from earlier work
antizyme frameshifting = assay: dual luciferase reporter assay for antizyme frameshifting in HEK-293 cells; type: cell-based; conditions: for frameshift-rescue factor (FRF): %RF multiplied by the inverse of the rescue coefficient
Experimental: Frameshifting can be detected using a dual luciferase reporter system that measures the efficiency of antizyme translational frameshifting (Grentzmann, G. et. al., RNA 4:479-486 (1998); Howard, M. et. al., Genes to Cells 6:931-941 (2001)). Frameshifting efficiency is determined by comparing the ratio of firefly luciferase to renilla luciferase activity in cells transfected in parallel using a control vector containing a constitutive […] (AZ-IF) that measures the in-frame translation efficiency and a vector containing the inducible 0 to +1 frameshift (AZ1) construct. In these constructs, the renilla luciferase gene is upstream of the firefly luciferase gene which are separated by a short cloning sequence containing the portions of antizyme 1 and 2 known to contain the mRNA signals for polyamine stimulated frameshifting. Using a 96-well format, this assay system gives a quantitative measure of the efficiency of the polyamines, polyamine analogs and other compounds to induce frameshifting in a cell-based bioassay. Cells must be pretreated with α-difluoromethylomithine (DFMO), an irreversible inhibitor of ODC, prior to screening to decrease the basal antizyme frameshifting levels and increase the sensitivity to polyamine or compound-mediated stimulation of antizyme frameshifting.
Figure 1 is a tabular representation of a large number of polyamines A-S (25 µM) that were tested for their ability to induce antizyme frameshifting using the dual luciferase reporter assay. The percent relative frameshifting value (% RF) gives a comparison of the ability of a compound to induce frameshifting compared to 25 µM spermidine. The % RF was calculated as follows. The background percent frameshifting activity determined from the 2.5 mM DFMO negative control was subtracted from the percent frameshifting activity for all compounds including the spermidine control. The background corrected frameshifting activity of each compound was then divided by the background corrected frameshifting activity induced by 25 µM spermidine and multiplied by 100. The compounds were also evaluated for their ability to rescue cells from DFMO-induced growth inhibition by determining their rescue coefficient. The rescue coefficient represents the ratio of the cell growth, as measured by O.D., in the presence of the test compound with 2.5 mM DFMO to the growth in the presence of 2.5 mM DFMO alone. The frameshift-rescue factor (FRF) is a useful factor to compare the effectiveness of the various antizyme frameshifters by taking into account their potency for inducing frameshifting and ability to rescue cells from DFMO-induced growth inhibition. The FRF was calculated by multipling the %RF value by the inverse of the rescue coefficient.
Values represent percent frameshifting following transient transfection of an AZ1-IF control and the inducible 0 to +1 AZ1 plasmid construct into HEK-293 cells grown in the presence of 2.5 mM DFMO. The compounds were added to the cells after transfection and incubated overnight before assaying the next day. Each value represents triplicate measurements.
A series of compounds are screened for their ability to induce frameshifting using the dual luciferase reporter assay. HEK-293 cells are plated in white sided, clear-bottomed 96-well assay plates at 15,000 cells per well in 100 µL of medium (DMEM supplemented with 10% fetal bovine serum (Gibco), 1% penicillin, streptomycin and L-glutamine) containing 2.5 mM DFMO. […]

HEK-293 cells [1] = assay: rescue from DFMO-induced growth inhibition (6 days, MTS/PMS dye assay); type: cell-based; conditions: 25 µM compound, 2.5 mM DFMO
Experimental: The rescue coefficient represents the ratio of cell growth, as measured by O.D., of the test compound with 2.5 mM DFMO versus 2.5 mM DFMO alone.
HEK-293 cells are plated in 96-well assay plates at 1,000 cells per well in 100 µL of medium (DMEM supplemented with 10% fetal bovine serum (Gibco), 1% penicillin, streptomycin and L-glutamine). The cells are incubated overnight at 37°C in an atmosphere of 5% CO2. Compounds are added the next day to a final concentration of 25 µM along with 1 mM aminoguanidine (inhibits serum amine oxidase) and 2.5 mM DFMO in a final volume of 200 µL medium. The positive control contained 25 µM spermidine. The cells are allowed to incubate for 6 days before cell growth is measured by MTS/PMS dye assay (Cell Titer 96 Aqueous Non-Radioactive Cell Proliferation Assay, Promega). […] Therefore, DFMO alone has a value of one. […] If the value is less than one, then the compound is growth inhibitory. If the value is 0, the compound is cytotoxic.

HEK-293 cells [2] = assay: cells
Experimental: Cell number was determined by MTS/PMS assay from triplicate wells. Cells are plated in 96-well plates such that they would be in log growth for the duration of the assay. The day after plating, the polyamine analogs are added to the cells, and growth, if any, permitted to continue for six days in the presence of 1 mM AG and 1 µM SPD when appropriate. At the end of six days, cell growth is measured by MTS/PMS dye assay (Cell Titer 96 Aqueous Non-Radioactive Cell Proliferation Assay; Promega, Madison, WI).

HEK-293 cells [3] = assay: intracellular polyamine levels (HPLC) and cell growth after 6-day incubation; type: cell-based
Experimental: Figure 6 is a graph showing the effect of a 6-day incubation of compound A on HEK-293 cellular polyamine levels and cell growth. All flasks received 1 mM aminoguanidine. Cells were washed, counted, lysed in perchloric acid, dansylated and polyamine levels determined by HPLC. Each value represents the average of triplicate values with the error bars representing standard deviation. Figure 7 illustrates the effect of extracellular compound A on the intracellular concentration of compound A in HEK-293 cells as determined by HPLC. Cells were prepared as in Figure 6. Peak area was normalized by dividing the peak area of the compound divided by the peak area of the internal standard, diaminoheptane. Values represent at least triplicate measurements with the error bars representing standard deviation.
Compound A is further evaluated to determine if it depletes intracellular polyamine levels in HEK-293 cells in a dose-dependent fashion (Fig. 6). […] After overnight incubation at 37°C in an atmosphere of 5% CO2, compound A is added along with 1 mM aminoguanidine. The flasks are then incubated for 6 days at 37°C in an atmosphere of 5% CO2. The cells are harvested by washing twice with ice-cold 1X PBS, trypsinized, counted, and lysed in 0.4 N perchloric acid. Diaminoheptane is used in all dansylation reactions as an internal standard. Peak area is normalized by dividing the peak area of the compound divided by the peak area of the internal standard. The HPLC method for the fluorometric detection of polyamines from the cell extracts is based on the procedure by Kabra (Kabra, P. M. et. al. J. Chromatogr. 380:19-32 (1986)).

ODC = molecular target: T1, ODC (Homo sapiens, UniProt P11926); conditions: inhibition of ODC; cited from earlier work
T1 sequence (P11926 1-461): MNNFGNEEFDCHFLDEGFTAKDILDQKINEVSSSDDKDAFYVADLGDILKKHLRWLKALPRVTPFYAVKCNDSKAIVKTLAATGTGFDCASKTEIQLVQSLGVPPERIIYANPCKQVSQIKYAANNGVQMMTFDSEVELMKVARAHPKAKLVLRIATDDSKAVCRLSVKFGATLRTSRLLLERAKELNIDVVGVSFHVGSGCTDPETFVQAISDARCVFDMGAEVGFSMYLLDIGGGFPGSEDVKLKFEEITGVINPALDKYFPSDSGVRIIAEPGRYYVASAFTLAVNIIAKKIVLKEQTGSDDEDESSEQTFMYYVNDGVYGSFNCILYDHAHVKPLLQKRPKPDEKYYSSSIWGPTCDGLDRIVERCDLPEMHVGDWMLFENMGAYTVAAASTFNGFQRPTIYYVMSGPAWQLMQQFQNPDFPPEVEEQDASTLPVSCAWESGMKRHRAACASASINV

CCNCCCCNCCCCNCCCCNCCCCNCC [BE-4-4-4-4, 1,19-bis(ethylamino)-5,10,15-triazanonadecane]
antizyme induction compared with spermine (antizyme): induce antizyme as well as spermine

NCCCCNCc1ccc(CNCCCN)cc1 [Compound B]
potency in inducing antizyme frameshifting compared with agmatine (antizyme frameshifting; 25 µM, Fig 2): more potent than agmatine
frameshift-rescue factor (FRF) (antizyme frameshifting; 25 µM): 83
ability to rescue cells from DFMO-induced growth inhibition (HEK-293 cells [1]): neither compound A nor B significantly rescue cells

CCNCCCNCCCNCCCNCC [bisethylnorspermine]
antizyme induction compared with spermine (antizyme): induce antizyme as well as spermine

N=C(N)NCCCCN [Agmatine, reference compound]
ability to rescue cells from DFMO-induced growth inhibition (HEK-293 cells [1]): somewhat better than either A or B

NCCCN(CCCN)Cc1ccc(CN(CCCN)CCCN)cc1 [Compound S, reference compound]
%RF (percent relative frameshifting) (antizyme frameshifting; 25 µM compound, relative to 25 µM spermidine): 100%

CCNCCCCNCCCCNCCCCNCC [bisethylhomospermine]
antizyme induction compared with spermine (antizyme): induce antizyme as well as spermine

NCCCNCc1ccc(CN)cc1 [Compound A]
frameshift-rescue factor (FRF) (antizyme frameshifting; 25 µM): 120
pEC50 (antizyme frameshifting; Homo sapiens, HEK293, HEK-293 cells, 2.5 mM DFMO, concentration giving 50% of the maximum percent frameshifting (plateau), read-out: EC50 for induction of frameshifting): ~3.92
concentration range of compound A in which 1 µM spermidine rescues cells from growth inhibition (HEK-293 cells [2]; HEK-293 cells, addition of 1 µM spermidine): 3 to 100 µM
pIC50 (HEK-293 cells [2]; Homo sapiens, HEK293, 144 h, read-out: IC50 for growth inhibition, HEK-293 cells, 6 days, 1 mM aminoguanidine): ~4.22
cell growth decreasing by (HEK-293 cells [3]; 10 µM compound A, 6 days): 32%
spermidine levels down by (HEK-293 cells [3]; 10 µM compound A, 6 days): about 90%
cell growth decreasing by (HEK-293 cells [3]; 30 µM compound A, 6 days): 38.5%
spermine levels reduced by (HEK-293 cells [3]; 100 µM compound A, 6 days): 50%
spermine levels, percent of normal (HEK-293 cells [3]; compound A levels above 30 µM): approximately 50%

Nc1ccc(N)cc1 [1,4-phenylenediamine]
pKi (ODC): 4.34

NC/C=C/CN [1,4-diamino-trans-2-butene]
pKi (ODC): 5.70
